Assay results published in patent US20080248487A1, “MODULATION OF PROTEIN FUNCTIONALITIES” (priority 2007, published 2008).

Target: T1, p38 MAP kinase (Homo sapiens, UniProt Q16539)
T1 construct: made in house; host or cells: E. coli
Assay: P38 MAP kinase binding assay (competition with fluorescent probe SKF 86002)
Conditions: time-dependent if the IC50 values decrease with the reaction time (more than two-fold in four hours)
Description: Thus, the ability of a small molecule to block fluoroprobe binding provides an experimental readout of binding to the switch control pocket. […] The reaction was initiated by addition of the enzyme. […] By comparison of rfu (relative fluorescence unit) values with that of a control (in the absence of small molecule modulators), the percentage of inhibition at each concentration of the small molecules were calculated. IC50 values for the small molecule modulators were calculated from the % inhibition values obtained at a range of concentrations of the small molecule modulators using Prism. When time-dependent inhibition was assessed, the plate was read at multiple reaction times such as 0.5, 1, 2, 3, 4 and 6 hours. The IC50 values were calculated at each time point. An inhibition was assigned as time-dependent if the IC50 values decrease with the reaction time (more than two-fold in four hours).

T1 sequence (Q16539 whole entry): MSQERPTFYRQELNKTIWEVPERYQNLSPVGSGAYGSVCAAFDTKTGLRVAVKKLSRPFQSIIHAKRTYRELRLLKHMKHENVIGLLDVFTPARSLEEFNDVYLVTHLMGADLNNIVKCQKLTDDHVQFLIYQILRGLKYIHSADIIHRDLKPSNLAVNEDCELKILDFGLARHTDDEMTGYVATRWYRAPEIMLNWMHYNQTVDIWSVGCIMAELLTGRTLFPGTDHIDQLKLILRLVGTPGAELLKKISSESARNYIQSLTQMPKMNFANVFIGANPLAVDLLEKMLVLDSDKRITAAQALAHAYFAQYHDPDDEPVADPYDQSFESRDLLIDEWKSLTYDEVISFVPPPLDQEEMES

Structure (SMILES): CC1(C(=O)O)CC2(C)CC(C)(C1)C(=O)N(Cc1cccc(-n3nc(C(C)(C)C)cc3NC(=O)Nc3cccc4ccccc34)c1)C2=O (stereo not shown) [Example 11]
- Time-dependent: No

Structure (SMILES): CC1(C(=O)O)CC2(C)CC(C)(C1)C(=O)N(Cc1cccc(-n3nc(C(C)(C)C)cc3NC(=O)Nc3ccc(Cl)cc3)c1)C2=O (stereo not shown) [Example 12]
- Time-dependent: No

Structure (SMILES): CC(C)(C)c1cc(NC(=O)Nc2cccc3ccccc23)n(-c2cccc(CC(=O)N3CCOCC3)c2)n1 [Example 21, 1-{3-tert-butyl-1-[3-(2-morpholino-2-oxoethyl)phenyl]-1H-pyrazol-5-yl}-3-(naphthalene-1-yl)urea]
- Time-dependent: Yes

Structure (SMILES): CC(C)(C)c1cc(NC(=O)Nc2cccc3ccccc23)n(-c2ccc(CN)cc2)n1 [Example 45, 1-{3-tert-butyl-1-[4-(aminomethyl)phenyl]-1H-pyrazol-5-yl}-3-(naphthalen-1-yl)urea]
- Time-dependent: No
